Tests used:
bedstraw = assay: Test B pre/postemergence bedstraw; assay type: in vivo, Galium aparine
Procedure, shortened: (§1)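 Test chemicals in a non-phytotoxic solvent mixture with surfactant were sprayed preemergence onto planted seeds and postemergence onto plants 2 to 18 cm tall (1- to 4-leaf stage). After twelve to sixteen days in a greenhouse, injury was visually rated against untreated controls from 0 (no effect) to 10 (complete control).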

cocklebur = assay: Test B pre/postemergence cocklebur; assay type: in vivo, Xanthium strumarium
Procedure, shortened: as §1

corn = assay: Test B pre/postemergence corn; assay type: in vivo, Zea mays
Procedure, shortened: as §1

crabgrass = assay: Test B pre/postemergence crabgrass; assay type: in vivo, Digitaria sanguinalis
Procedure, shortened: as §1

giant foxtail = assay: Test B pre/postemergence giant foxtail; assay type: in vivo, Setaria faberii
Procedure, shortened: as §1

morningglory = assay: Test B pre/postemergence morningglory; assay type: in vivo, Ipomoea hederacea
Procedure, shortened: as §1

pigweed = assay: Test B pre/postemergence pigweed; assay type: in vivo, Amaranthus retroflexus
Procedure, shortened: as §1

rape = assay: Test B pre/postemergence rape; assay type: in vivo, Brassica napus
Procedure, shortened: as §1

soybean = assay: Test B pre/postemergence soybean; assay type: in vivo, Glycine max
Procedure, shortened: as §1

velvetleaf = assay: Test B pre/postemergence velvetleaf; assay type: in vivo, Abutilon theophrasti
Procedure, shortened: as §1

wheat = assay: Test B pre/postemergence wheat; assay type: in vivo, Triticum aestivum
Procedure, shortened: as §1

wild oat = assay: Test B pre/postemergence wild oat; assay type: in vivo, Avena fatua
Procedure, shortened: as §1

purple nutsedge = assay: Test B pre/postemergence purple nutsedge; assay type: in vivo, Cyperus rotundus
Procedure, shortened: as §1

rice = assay: Test B flood test rice; assay type: in vivo, Oryza sativa
Procedure, shortened: (§2)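 Read-out is a visual response score from 0 (no effect) to 10 (complete control), assigned by comparison with untreated controls. Treatment was applied at the 2-leaf stage, and plants stayed in the greenhouse for twelve to sixteen days before scoring.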

smallflower flatsedge = assay: Test B flood test smallflower flatsedge; assay type: in vivo, Cyperus difformis
Procedure, shortened: as §2

duck salad = assay: Test B flood test duck salad; assay type: in vivo, Heteranthera limosa
Procedure, shortened: as §2

[1] = Postemergence, Rate 125 g/ha, scale of 0 to 10 where 0 is no effect and 10 is complete control
[2] = Postemergence, Rate 1000 g/ha, scale 0 to 10 (0 no effect, 10 complete control)
[3] = Preemergence, Rate 125 g/ha, 0 is no effect, 10 is complete control
[4] = Preemergence, Rate 250 g/ha, scale 0 to 10, 0 is no effect, 10 is complete control
[5] = Preemergence, Rate 500 g/ha, scale 0 to 10 (0 no effect, 10 complete control)
[6] = Rate 250 g/ha, Postemergence, scale 0 to 10, 0 is no effect, 10 is complete control
[7] = Rate 500 g/ha, Postemergence, scale 0 to 10
[8] = Rate 1000 g/ha, Preemergence, scale 0 to 10 (0 no effect, 10 complete control)
[9] = Postemergence (flood test species), Rate 125 g/ha, scale of 0 to 10 where 0 is no effect and 10 is complete control
[10] = Rate 250 g/ha, Postemergence (flood test), scale 0 to 10, 0 is no effect, 10 is complete control
[11] = Rate 500 g/ha, listed under Postemergence (flood test species), scale 0 to 10

Cc1ccccc1-n1c(=O)on(C(=O)N(c2c(F)cccc2F)C(C)C)c1=O [Compound 176]
Bedstraw plant response rating (bedstraw; [1]): 0 | Bedstraw plant response rating (bedstraw; [2]): 9 | Bedstraw plant response rating (0 to 10 scale) (bedstraw; [3]): 0 | Bedstraw plant response rating (bedstraw; [4]): 0 | Bedstraw plant response rating (bedstraw; [5]): 0 | Plant response rating, Bedstraw (bedstraw; [6]): 2 | Bedstraw plant response rating (bedstraw; [7]): 8 | Plant response rating, Bedstraw (bedstraw; [8]): 6 | Cocklebur plant response rating (cocklebur; [1]): 2 | Cocklebur plant response rating (cocklebur; [2]): 6 | Cocklebur plant response rating (0 to 10 scale) (cocklebur; [3]): 0 | Cocklebur plant response rating (cocklebur; [4]): 0 | Cocklebur plant response rating (cocklebur; [5]): 0 | Plant response rating, Cocklebur (cocklebur; [6]): 2 | Cocklebur plant response rating (cocklebur; [7]): 3 | Plant response rating, Cocklebur (cocklebur; [8]): 0 | Corn plant response rating (corn; [1]): 0 | Corn plant response rating (corn; [2]): 0 | Corn plant response rating (0 to 10 scale) (corn; [3]): 0 | Corn plant response rating (corn; [4]): 0 | Corn plant response rating (corn; [5]): 0 | Plant response rating, Corn (corn; [6]): 0 | Corn plant response rating (corn; [7]): 0 | Plant response rating, Corn (corn; [8]): 2 | Crabgrass plant response rating (crabgrass; [1]): 0 | Crabgrass plant response rating (crabgrass; [2]): 9 | Crabgrass plant response rating (0 to 10 scale) (crabgrass; [3]): 8 | Crabgrass plant response rating (crabgrass; [4]): 9 | Crabgrass plant response rating (crabgrass; [5]): 10 | Plant response rating, Crabgrass (crabgrass; [6]): 3 | Crabgrass plant response rating (crabgrass; [7]): 6 | Plant response rating, Crabgrass (crabgrass; [8]): 10 | Giant foxtail plant response rating (giant foxtail; [1]): 0 | Giant foxtail plant response rating (giant foxtail; [2]): 7 | Giant foxtail plant response rating (0 to 10 scale) (giant foxtail; [3]): 6 | Giant foxtail plant response rating (giant foxtail; [4]): 10 | Giant foxtail plant response rating (giant foxtail; [5]): 10 | Plant response rating, Giant foxtail (giant foxtail; [6]): 0 | Giant foxtail plant response rating (giant foxtail; [7]): 6 | Plant response rating, Giant foxtail (giant foxtail; [8]): 10 | Morningglory plant response rating (morningglory; [1]): 2 | Morningglory plant response rating (morningglory; [2]): 7 | Morningglory plant response rating (0 to 10 scale) (morningglory; [3]): 0 | Morningglory plant response rating (morningglory; [4]): 0 | Morningglory plant response rating (morningglory; [5]): 0 | Plant response rating, Morningglory (morningglory; [6]): 2 | Morningglory plant response rating (morningglory; [7]): 3 | Plant response rating, Morningglory (morningglory; [8]): 0 | Redroot pigweed plant response rating (pigweed; [1]): 0 | Redroot pigweed plant response rating (pigweed; [2]): 1 | Redroot pigweed plant response rating (0 to 10 scale) (pigweed; [3]): 0 | Redroot pigweed plant response rating (pigweed; [4]): 0 | Redroot pigweed plant response rating (pigweed; [5]): 0 | Plant response rating, Redroot pigweed (pigweed; [6]): 0 | Redroot pigweed plant response rating (pigweed; [7]): 0 | Plant response rating, Redroot pigweed (pigweed; [8]): 0 | Rape plant response rating (rape; [1]): 0 | Rape plant response rating (rape; [2]): 0 | Rape plant response rating (0 to 10 scale) (rape; [3]): 0 | Rape plant response rating (rape; [4]): 0 | Rape plant response rating (rape; [5]): 0 | Plant response rating, Rape (rape; [6]): 0 | Rape plant response rating (rape; [7]): 0 | Plant response rating, Rape (rape; [8]): 3 | Soybean plant response rating (soybean; [1]): 2 | Soybean plant response rating (soybean; [2]): 4 | Soybean plant response rating (0 to 10 scale) (soybean; [3]): 0 | Soybean plant response rating (soybean; [4]): 0 | Soybean plant response rating (soybean; [5]): 0 | Plant response rating, Soybean (soybean; [6]): 2 | Soybean plant response rating (soybean; [7]): 4 | Plant response rating, Soybean (soybean; [8]): 2 | Velvetleaf plant response rating (velvetleaf; [2]): 3 | Velvetleaf plant response rating (0 to 10 scale) (velvetleaf; [3]): 0 | Velvetleaf plant response rating (velvetleaf; [4]): 0 | Velvetleaf plant response rating (velvetleaf; [5]): 2 | Plant response rating, Velvetleaf (velvetleaf; [6]): 2 | Velvetleaf plant response rating (velvetleaf; [7]): 2 | Plant response rating, Velvetleaf (velvetleaf; [8]): 5 | Wheat plant response rating (wheat; [2]): 4 | Wheat plant response rating (0 to 10 scale) (wheat; [3]): 0 | Wheat plant response rating (wheat; [4]): 0 | Wheat plant response rating (wheat; [5]): 0 | Plant response rating, Wheat (wheat; [6]): 0 | Wheat plant response rating (wheat; [7]): 2 | Plant response rating, Wheat (wheat; [8]): 4 | Wild oats plant response rating (wild oat; [2]): 4 | Wild oats plant response rating (0 to 10 scale) (wild oat; [3]): 0 | Wild oats plant response rating (wild oat; [4]): 3 | Wild oats plant response rating (wild oat; [5]): 5 | Plant response rating, Wild oats (wild oat; [6]): 0 | Wild oats plant response rating (wild oat; [7]): 0 | Plant response rating, Wild oats (wild oat; [8]): 5 | Nutsedge plant response rating (purple nutsedge; [1]): 0 | Nutsedge plant response rating (0 to 10 scale) (purple nutsedge; [3]): 0 | Nutsedge plant response rating (purple nutsedge; [4]): 0 | Nutsedge plant response rating (purple nutsedge; [5]): 0 | Plant response rating, Nutsedge (purple nutsedge; [6]): 0 | Nutsedge plant response rating (purple nutsedge; [7]): 0 | Plant response rating, Nutsedge (purple nutsedge; [8]): 10 | Rice plant response rating (rice; [9]): 0 | Rice plant response rating (rice; [2]): 0 | Plant response rating, Rice (rice; [10]): 0 | Rice plant response rating (rice; [11]): 0 | S. Flatsedge plant response rating (smallflower flatsedge; [9]): 0 | S. Flatsedge plant response rating (smallflower flatsedge; [2]): 0 | Plant response rating, S. Flatsedge (smallflower flatsedge; [10]): 0 | S. Flatsedge plant response rating (smallflower flatsedge; [11]): 0 | Ducksalad plant response rating (duck salad; [9]): 0 | Ducksalad plant response rating (duck salad; [2]): 0 | Plant response rating, Ducksalad (duck salad; [10]): 0 | Ducksalad plant response rating (duck salad; [11]): 0

— patent US6737383B1, “Herbicidal oxadiazolidines” (priority 1999, dated 2004)
